In patent publication US20180250306A1, “ALDEHYDE CONJUGATES AND USES THEREOF” (ALDEYRA THERAPEUTICS, INC., priority 2015, published 2018):

Key:
[1] = Consumption of 4HNE over time (HPLC, 254 nm); conditions: for Consumption of 4HNE, ranking, 7 Hours / Consumption of 4HNE, ranking, 23 Hours: rank from most effective (1) to least; for Consumption of 4HNE, ranking, 23 Hours: ranks 1-4 essentially identical; for decrease in HNE relative to corresponding increase in adduct: 1 week time period
Source text: 5 of 6 samples show consumption of 4HNE. One sample (2-(3-aminoquinolin-2-yl)propan-2-ol) overlaps 4HNE HPLC peak using current method. Best fit lines over this period give poorer fit to data than product formation data. Rate of 4HNE consumption can be used as an approximation of binding kinetics. […] The data were used to rank relatively each of the samples examined, including NS-2 but excluding 2-(3-aminoquinolin-2-yl)propan-2-ol.

[2] = Aldehyde adduct formation over time (product HPLC peak); conditions: for Formation of Product, ranking, 7 Hours / Formation of Product, ranking, 23 Hours: rank from most effective (1) to least
Procedure: It is not possible to conclude if this is the result of poor dissociation (from cyclodextrin) or poor interaction with the aldehyde. Best fit lines over this period give excellent fit to data. […] It can be used to relatively rank each of the samples examined, including NS2. The data were first evaluated over a 7 h time window.

For `CC(C)(O)c1nc2ccc(Br)cc2cc1N` [2-(3-amino-6-bromoquinolin-2-yl)propan-2-ol], the “Gradient of 4HNE consumption” value ([1]; 23 h) was “(Gradient −0.04,”, the “Gradient of 4HNE consumption” value ([1]; first 7 h, analysis at 254 nm) was “(Gradient −0.04,” and the “Consumption of 4HNE, ranking, 7 Hours” value [1] was 4. For the same compound, the “Consumption of 4HNE, ranking, 23 Hours” value [1] was 4, the “Gradient of product HPLC peak increase (rate of adduct formation)” value (shortened to “Gradient of product HPLC peak increase”) ([2]; 7 h time window) was “(Gradient 1.63,” and the “Gradient of product HPLC peak increase” value ([2]; 23 h time window) was “(Gradient 1.16,”. For the same compound, the “Formation of Product, ranking, 7 Hours” value [2] was 4 and the “Formation of Product, ranking, 23 Hours” value [2] was 4.

For `CC(C)(O)c1nc2cccc(Cl)c2cc1N` [2-(3-amino-5-chloroquinolin-2yl)propan-2-ol], the “Gradient of 4HNE consumption” value ([1]; 23 h) was “(Gradient −0.04,”, the “Gradient of 4HNE consumption” value ([1]; first 7 h, analysis at 254 nm) was “(Gradient −0.05,” and the “Consumption of 4HNE, ranking, 7 Hours” value [1] was 3. The “Consumption of 4HNE, ranking, 23 Hours” value [1] was 2, the “Gradient of product HPLC peak increase” value ([2]; 7 h time window) was “(Gradient 0.86,” and the “Gradient of product HPLC peak increase” value ([2]; 23 h time window) was “(Gradient 0.44,”. For the same compound, the “Formation of Product, ranking, 7 Hours” value [2] was 6 and the “Formation of Product, ranking, 23 Hours” value [2] was 6.

With `CC(C)(O)c1nc2ccccc2cc1N` [2-(3-aminoquinolin-2-yl)propan-2-ol] the “Gradient of product HPLC peak increase” value ([2]; 7 h time window) was “(Gradient 3.68,”, the “Gradient of product HPLC peak increase” value ([2]; 23 h time window) was “(Gradient 1.99,” and the “Formation of Product, ranking, 7 Hours” value [2] was 1. For the same compound, the “Formation of Product, ranking, 23 Hours” value [2] was 1.

In the case of `CC(C)(O)c1nc2c(Cl)cccc2cc1N` [2-(3-amino-8-chloroquinolin-2-yl)propan-2-ol], the “decrease in HNE relative to corresponding increase in adduct” value [1] is reported as “greater”, the “Gradient of 4HNE consumption” value ([1]; 23 h) is reported as “(Gradient −0.02,” and the “Gradient of 4HNE consumption” value ([1]; first 7 h, analysis at 254 nm) is reported as “(Gradient −0.01,”. For the same compound, the “Consumption of 4HNE, ranking, 7 Hours” value [1] was 5, the “Consumption of 4HNE, ranking, 23 Hours” value [1] was 5 and the “Gradient of product HPLC peak increase” value ([2]; 7 h time window) was “(Gradient 1.18,”. The “Gradient of product HPLC peak increase” value ([2]; 23 h time window) was “(Gradient 0.81,”, the “Formation of Product, ranking, 7 Hours” value [2] was 5 and the “Formation of Product, ranking, 23 Hours” value [2] was 5.

In the case of `CC(C)(O)c1nc2cc(Cl)ccc2cc1N` [2-(3-amino-7-chloroquinolin-2-yl)propan-2-ol], the “decrease in HNE relative to corresponding increase in adduct” value [1] is reported as “greater”, the “Gradient of 4HNE consumption” value ([1]; 23 h) is reported as “(Gradient −0.05,” and the “Gradient of 4HNE consumption” value ([1]; first 7 h, analysis at 254 nm) is reported as “(Gradient −0.06,”. The “Consumption of 4HNE, ranking, 7 Hours” value [1] was 2, the “Consumption of 4HNE, ranking, 23 Hours” value [1] was 1 and the “Gradient of product HPLC peak increase” value ([2]; 7 h time window) was “(Gradient 2.02,”. The “Gradient of product HPLC peak increase” value ([2]; 23 h time window) was “(Gradient 1.21,”, the “Formation of Product, ranking, 7 Hours” value [2] was 3 and the “Formation of Product, ranking, 23 Hours” value [2] was 3.
